The compounds below were run against T1, Poly [ADP-ribose] polymerase tankyrase-2 (Homo sapiens, UniProt Q9H2K2) (assay: Activity of N-terminus hexaHis-tagged human TNSK2 expressed in Escherichia coli BL21 (DE3) cells using biotinylated NAD+ as substrate after 90 mins by Western blot analysis).
T1 sequence (Q9H2K2 whole entry): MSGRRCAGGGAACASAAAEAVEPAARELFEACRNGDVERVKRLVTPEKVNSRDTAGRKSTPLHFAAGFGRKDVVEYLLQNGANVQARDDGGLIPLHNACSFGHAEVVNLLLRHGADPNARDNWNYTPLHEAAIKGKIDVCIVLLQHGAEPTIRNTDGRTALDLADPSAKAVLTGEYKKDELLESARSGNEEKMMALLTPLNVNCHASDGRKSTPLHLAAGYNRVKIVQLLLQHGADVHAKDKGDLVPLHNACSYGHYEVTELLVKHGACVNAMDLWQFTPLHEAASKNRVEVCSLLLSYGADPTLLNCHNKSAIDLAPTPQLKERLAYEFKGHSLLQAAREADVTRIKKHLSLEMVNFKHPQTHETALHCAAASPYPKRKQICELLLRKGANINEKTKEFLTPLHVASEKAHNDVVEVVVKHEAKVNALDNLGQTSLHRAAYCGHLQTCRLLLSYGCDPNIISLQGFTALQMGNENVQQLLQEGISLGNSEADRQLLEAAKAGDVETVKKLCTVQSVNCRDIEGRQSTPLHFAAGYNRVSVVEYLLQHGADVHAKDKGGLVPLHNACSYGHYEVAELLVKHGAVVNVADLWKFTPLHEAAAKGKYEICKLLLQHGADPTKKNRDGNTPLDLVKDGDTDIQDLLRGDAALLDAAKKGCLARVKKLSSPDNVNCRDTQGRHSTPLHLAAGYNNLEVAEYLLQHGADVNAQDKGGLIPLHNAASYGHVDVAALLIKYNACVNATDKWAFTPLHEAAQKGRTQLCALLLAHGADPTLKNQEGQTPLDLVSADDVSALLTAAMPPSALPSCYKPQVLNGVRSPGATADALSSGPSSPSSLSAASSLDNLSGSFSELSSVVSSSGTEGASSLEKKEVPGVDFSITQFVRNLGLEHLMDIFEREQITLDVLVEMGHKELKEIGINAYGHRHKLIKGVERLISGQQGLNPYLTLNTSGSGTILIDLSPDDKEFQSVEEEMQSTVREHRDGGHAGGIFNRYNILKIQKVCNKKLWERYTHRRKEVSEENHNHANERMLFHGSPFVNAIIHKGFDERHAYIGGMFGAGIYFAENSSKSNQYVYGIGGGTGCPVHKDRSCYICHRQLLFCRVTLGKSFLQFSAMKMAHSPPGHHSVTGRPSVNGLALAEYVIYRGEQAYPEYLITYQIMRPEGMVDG
`O=C(NC1CCCCC1)c1ccc(N2C(=O)[C@@H]3[C@H](C2=O)[C@@H]2C=C[C@H]3C2)cc1` showed an EC50 of over 25 µM. In the case of `O=C(NCc1ccccc1)c1ccc(N2C(=O)[C@@H]3[C@H](C2=O)[C@@H]2C=C[C@H]3C2)cc1`, the EC50 is reported as 20 µM. For `O=C(Nc1ccccc1)c1ccc(N2C(=O)[C@@H]3[C@H](C2=O)[C@@H]2C=C[C@H]3C2)cc1`, the EC50 was over 25 µM. With `O=C(Nc1ccc(Br)cc1)c1ccc(N2C(=O)[C@@H]3[C@H](C2=O)[C@@H]2C=C[C@H]3C2)cc1` the EC50 was 1 µM. Work on `CO[C@H]1CCCC[C@@H]1NC(=O)c1ccc(N2C(=O)[C@@H]3[C@H](C2=O)[C@@H]2C=C[C@H]3C2)cc1` yielded an EC50 of 2 µM. Compound `O=C(NCc1ccncc1)c1ccc(N2C(=O)[C@@H]3[C@H](C2=O)[C@@H]2C=C[C@H]3C2)cc1` has an EC50 of 10 µM.
